From publication PMC9498296, “Inhibitory Activity of Quaternary Isoquinoline Alkaloids on Soluble Epoxide Hydrolase” (Current Issues in Molecular Biology, 2022)

Experiments:
[1] = target: T1, soluble epoxide hydrolase (sEH) (Homo sapiens, UniProt P34913); assay: sEH enzymatic assay (fluorometric, PHOME substrate); type: biochemical; conditions: 37 °C, pH 7.0, tested three times, read-out: Inhibition of Compounds on sEH IC50
T1 construct: purchased Cayman Chemical (Ann Arbor, MI, USA) 10011669
T1 sequence (P34913 1-555): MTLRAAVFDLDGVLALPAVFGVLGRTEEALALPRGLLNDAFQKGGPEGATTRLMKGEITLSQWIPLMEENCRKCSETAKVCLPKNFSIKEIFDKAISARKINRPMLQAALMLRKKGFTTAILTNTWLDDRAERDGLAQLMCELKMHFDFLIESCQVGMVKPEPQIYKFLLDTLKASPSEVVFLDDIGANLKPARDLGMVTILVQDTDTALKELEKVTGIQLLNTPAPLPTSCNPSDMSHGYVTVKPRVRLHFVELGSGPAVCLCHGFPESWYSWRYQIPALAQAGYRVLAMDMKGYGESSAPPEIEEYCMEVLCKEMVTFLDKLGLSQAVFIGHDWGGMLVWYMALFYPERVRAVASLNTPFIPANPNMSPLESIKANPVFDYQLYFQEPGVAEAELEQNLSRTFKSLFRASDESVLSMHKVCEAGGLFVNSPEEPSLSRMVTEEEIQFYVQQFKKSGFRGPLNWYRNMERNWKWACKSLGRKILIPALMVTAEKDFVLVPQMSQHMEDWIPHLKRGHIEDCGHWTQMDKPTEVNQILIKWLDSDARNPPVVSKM
Procedure: The sEH assay was performed as described previously, with minor modifications. To determine inhibitory activity, 130 μL of the sEH in 25 mM bis-Tris-HCl buffer (pH 7.0) containing 0.1% BSA was added to either 20 μL of inhibitor dissolved in MeOH. Next, 20 μL of PHOME was mixed to each mixture, which was then reacted at 37 °C for sEH hydrolysis. Product formation was monitored fluorometrically at 330 nm excitation and 465 nm emission for approximately 60 min.
sEH inhibition activity was calculated using sEH Inhibition rate (%) = [(ΔC − ΔI)/ΔC] × 100(1) where ΔC and ΔI are the difference of the solvent and compound intensities, respectively, after about one hour and y = y0 + (a × x/b + x)(2) where y0 is the minimum value along the y-axis, a is the difference between the maximum and minimum values, and b is the x value at 50 percent of the “a” value.

[2] = target: T1, soluble epoxide hydrolase (sEH); assay: Enzyme kinetics of sEH inhibition (Lineweaver–Burk and Dixon plots); type: biochemical; conditions: for Binding Mode: Lineweaver–Burk plots, PHOME substrate; for Ki: Table 1, Dixon plots, read-out: Binding Mode (ki, M): ki
Procedure: Additionally, an enzyme kinetic study was performed to identify how the three compounds bound to this enzyme. The initial velocity (v0) of inhibitor was determined as the rate of enzymatic conversion from substrate to product depending on the concentration of inhibitor at the start of the enzymatic reaction. The results were visualized using classic double-reciprocal Lineweaver–Burk plots. Figure 2B–D indicates one 1/Km and four 1/Vmax values for the three inhibitors, which inhibited the catalytic reaction of sEH with PHOME in a noncompetitive manner.

COc1cc2c(cc1OC)-c1cc3ccc(OC)c(OC)c3c[n+]1CC2 [Compound 1, palmatine]
IC50 [1]: 29.6 ± 0.5 µM
Binding Mode [2]: Non-competitive
Ki [2]: 2.69e-05 M

COc1ccc2cc3[n+](cc2c1OC)CCc1cc2c(cc1-3)OCO2 [Compound 2, berberine]
IC50 [1]: 33.4 ± 0.8 µM
Binding Mode [2]: Non-competitive
Ki [2]: 4.68e-05 M

COc1cc2c(cc1O)CC[n+]1cc3c(OC)c(OC)ccc3cc1-2 [Compound 3, jatrorrhizine]
IC50 [1]: 27.3 ± 0.4 µM
Binding Mode [2]: Non-competitive
Ki [2]: 4.45e-05 M
